From the NIST ThermoML archive (doi:10.1021/je100912t)
Numbers after ± are expanded uncertainties.

Experiments:
[1] = Liquid; for mass density: 298.15 K, 101.33 kPa, Pycnometric method; for vapor or sublimation pressure: Ebulliometric method (Recirculating still)
[2] = refractive index (Na D-line) (dimensionless); settings: 298.15 K; 101.33 kPa; Liquid; Standard Abbe refractometry

Q: What does the source list for `CCCO` [propan-1-ol]?
A: mass density [1]: 803.62 ± 0.71 kg/m3; vapor or sublimation pressure ([1]; 370.27 K): 101.33 ± 1 kPa; refractive index [2]: 1.3856 ± 0.0004

Q: Which mass density [1] does the source give for `CCC=O` [propanal] here?
A: 797.21 ± 0.7 kg/m3

Q: And the “vapor or sublimation pressure” value ([1]; 321.18 K)?
A: 101.33 ± 1 kPa

Q: And the refractive index [2]?
A: 1.3634 ± 0.0004

Q: With `CCC(=O)O` [propanoic acid] as the compound, how does the mass density [1] read?
A: 992.86 ± 0.88 kg/m3

Q: And the “vapor or sublimation pressure” value ([1]; 412.91 K)?
A: 101.33 ± 1 kPa

Q: And the refractive index [2]?
A: 1.3858 ± 0.0004
